Test results taken from US20190314407A1, “COMPOSITIONS AND METHODS FOR THE EXPANSION OF HEMATOPOIETIC STEM AND PROGENITOR CELLS” (Magenta Therapeutics Inc., priority 2017, published 2019).

Columns and labels:
[1] = system: primary human CD34+ cells; assay: Ex vivo expansion of primary human CD34+ cells in the presence of cytokines (Example 1); type: cell-based; settings: relative to vehicle-cultured CB derived CD34+ cells
Procedure: (§1) Methods. […] Cell number and immunophenotype were assessed by flow cytometry, and HSC function was evaluated by cell and molecular assays in vitro. The expanded cells were transplanted into sub-lethally irradiated NSG mice to evaluate engraftment potential in vivo. For editing studies, mPB and BM CD34+ cells were electroporated with CRISPR/Cas9 RNPs targeting the beta-2 microglobulin (B2M) cell surface protein. Editing rates were evaluated by flow cytometry based on loss of protein expression and TIDE analysis. Edited cells were expanded in the presence of AHR antagonist or vehicle and transplanted into NSG mice. The AHR antagonist used in the experiments described in this Example is Compound 26 herein. Engraftment and editing rates were evaluated by flow cytometry of the peripheral blood and bone marrow.

NSG mice [2] = assay: Transplant of gene-modified, expanded CD34+ cells into NSG mice (Example 2); type: in vivo, mouse; settings: AHR antagonist = Compound 26
Excerpt: Transplant into NSG mice: All of the progeny from cultured cells were transplanted into sub-lethally irradiated, female, 6-8 week old NSG mice. Engraftment and transduction/editing rates were monitored monthly by flow cytometry. “Minimally manipulated” controls were transplanted one day after editing for a total culture time of 2 days.

[3] = system: CD34+CD90+ cord blood cells; assay: Cell cycle phase of CD34+CD90+ cells in culture, cord blood (Example 5); type: cell-based; settings: cytokines, same in presence or absence of Compound 26 (500 nM)
[4] = system: mobilized peripheral blood (mPB) CD34+ cells; assay: Gene correction rate after prestimulation and electroporation with gRNA/Cas9 and oligonucleotide donor (Example 5); type: cell-based; settings: mPB cells prestimulated 4 days in the presence of Compound 26 versus 1 day prior to electroporation; FIG. 13A
Procedure: Mobilized peripheral blood (mPB) CD34+ or cord blood (CB) CD34+ cells were thawed and pre-stimulated, i.e., cultured, in serum-free media (SFEM media supplemented with cytokines SCF, IL6, TPO, and FLT3L) in the presence or absence of Compound 26 (500 nM). Cells were pre-stimulated 1, 2, 3, or 4 days prior to electroporation with gRNA/Cas9 and oligonucleotide donor. Cells were cultured for an additional 8 days after electroporation and profiled at 2, 4, 6, or 8 days post-electroporation using a Trucount-based method of HSC quantification of CD34, CD90, and CD45RA. Cells were subcultured to maintain cell density at less than 1×10^6 cells/mL. On day 8, genomic DNA was extracted from bulk cell cultures, and correction rate was assessed by qPCR. Number of corrected cells was determined by number of total cells at the indicated timepoint multiplied by the correction rate for that pre-stimulation condition.

[5] = system: mPB and BM derived CD34+ cells; assay: Expansion of CRISPR/Cas9 B2M-edited mPB and BM CD34+ cells (Example 1); type: cell-based, human; settings: 7 days of expansion, AHR antagonist = Compound 26
Procedure: as §1

[6] = system: CD34+CD90+ mobilized peripheral blood cells; assay: Cell cycle phase of CD34+CD90+ cells in culture, mobilized peripheral blood (Example 5); type: cell-based; settings: cytokines, same in presence or absence of Compound 26 (500 nM)
[7] = system: CD34+ cells from mPB and bone marrow (BM); assay: Ex vivo expansion of lentivirally transduced or CRISPR/Cas9 B2M-edited CD34+ cells (Example 2); type: cell-based, human; settings: AHR antagonist = Compound 26
Procedure: Lentiviral Transduction: Cryopreserved CD34+ cells from mobilized peripheral blood (mPB) were thawed and cultured overnight in media with cytokines and either vehicle (DMSO) or the AHR antagonist (expanded). The following day, cells were plated on retronectin-coated plates and transduced with a lentiviral vector, containing a green fluorescent protein (GFP) transgene under the control of the MND promoter, at an MOI of 50 in the presence of vehicle or the AHR antagonist. 24 hours later, cells were harvested, washed, and resuspended in media with cytokines and the appropriate compound.
CRISPR/Cas9 Editing and Expansion: Cryopreserved CD34+ cells from mPB and bone marrow (BM) were thawed and cultured overnight in media with cytokines and either vehicle or the AHR antagonist. Cells were electroporated with Cas9 protein (Aldevron) and synthetic, chemically-modified gRNA (Synthego) targeting beta-2-microglobulin (B2M) as a ribonucleotide protein (RNP).

NSG mice [8] = assay: Transplant of expanded cells into sub-lethally irradiated NSG mice, engraftment and editing rates by flow cytometry (Example 1); type: in vivo, mouse; settings: for engraftment in NSG mice: relative to vehicle-cultured CB derived CD34+ cells
Procedure: as §1

AHR = target: T1, AHR (Homo sapiens, UniProt P35869); assay: Dioxin response element luciferase reporter assay; type: cell-based
T1 sequence (P35869 11-848): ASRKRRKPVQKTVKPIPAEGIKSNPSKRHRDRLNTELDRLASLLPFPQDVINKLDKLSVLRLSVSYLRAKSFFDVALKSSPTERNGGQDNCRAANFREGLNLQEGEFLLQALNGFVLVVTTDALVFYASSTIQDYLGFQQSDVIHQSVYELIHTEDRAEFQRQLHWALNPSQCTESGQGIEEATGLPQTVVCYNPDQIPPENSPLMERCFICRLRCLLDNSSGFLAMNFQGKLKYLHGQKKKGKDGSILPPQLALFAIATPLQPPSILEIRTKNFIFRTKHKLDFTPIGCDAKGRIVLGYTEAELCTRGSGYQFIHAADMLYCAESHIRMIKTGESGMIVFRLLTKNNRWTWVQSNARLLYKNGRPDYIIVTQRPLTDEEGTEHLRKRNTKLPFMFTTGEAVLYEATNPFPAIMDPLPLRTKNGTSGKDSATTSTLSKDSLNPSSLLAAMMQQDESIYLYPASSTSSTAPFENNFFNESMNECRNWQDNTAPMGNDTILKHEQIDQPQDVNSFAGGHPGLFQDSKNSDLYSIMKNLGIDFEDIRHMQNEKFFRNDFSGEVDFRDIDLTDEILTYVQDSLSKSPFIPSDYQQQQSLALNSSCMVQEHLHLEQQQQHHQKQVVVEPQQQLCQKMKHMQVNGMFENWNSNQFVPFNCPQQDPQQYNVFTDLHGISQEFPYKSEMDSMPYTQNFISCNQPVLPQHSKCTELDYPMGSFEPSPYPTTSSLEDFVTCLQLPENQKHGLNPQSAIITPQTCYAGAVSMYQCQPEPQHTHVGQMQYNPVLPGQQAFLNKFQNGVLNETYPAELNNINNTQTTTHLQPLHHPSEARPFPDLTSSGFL

[9] = mPB CD34+ cells, 7 days culture, FIGS. 2A-2D
[10] = B2M-edited expanded cells, AHR antagonist = Compound 26

Compound: COCCC(C)c1cnc2c(NCCc3c[nH]c4ccccc34)nc(-c3cncc(F)c3)cn12 (stereo not shown) [Compound 26]
- increase in CD34+ number [1]: 6 fold
- retention of B2M− phenotype relative to vehicle-treated cells following transplantation (NSG mice [2]; NSG mice): greater retention
- improvement in engraftment compared to vehicle-cultured cells (NSG mice [2]; edited, expanded cells, both the PB and BM of mice after 16 weeks): greater than 2 fold
- engraftment rates relative to minimally-manipulated cells (NSG mice [2]; expanded, edited mPB and BM cells, FIGS. 7A-7N): higher engraftment rates
- editing rates following transplantation into NSG mice (NSG mice [2]; mPB and BM CD34+ cells): maintained
- engraftment compared to minimally manipulated and vehicle controls (NSG mice [2]; mPB and BM hematopoietic stem cells transplanted into NSG mice): increased engraftment
- engraftment rates relative to vehicle-cultured cells (NSG mice [2]; transduced/edited, expanded mPB cells in NSG mice): higher engraftment rates
- days in culture after which substantially all CD34+CD90+ cells exit the G0 phase and enter the replicative cell cycle [3]: about 3 days
- rates of gene correction [4]: higher rates of gene correction
- CD34+CD90+ cells in expanded culture versus vehicle-treated cells ([5]; B2M-edited cells): 3.4 fold
- loss of the target protein (B2M) ([5]; mPB and BM CD34+ cells edited with CRISPR/Cas9 RNPs): 84%
- days in culture after which substantially all CD34+CD90+ cells exit the G0 phase and enter the replicative cell cycle [6]: about 3 days
- quantity of GFP+CD34+CD90+ cells ([7]; GFP lentivirus-transduced mPB CD34+ cells, 7 days, versus vehicle or no treatment): increased the quantity of GFP+CD34+CD90+ cells to a greater extent than vehicle treatment
- editing rates ([7]; both mPB and BM CD34+ cells, CRISPR/Cas9 B2M): 80%
- quantities of total cells, CD34+ cells, and CD34+CD90+ cells relative to vehicle-treated and untreated cells ([7]; cells subject to CRISPR/Cas9-mediated B2M editing, FIGS. 5A-5E): substantially higher quantities
- quantities of total cells, CD34+ cells, and CD34+CD90+ cells relative to vehicle-treated and untreated cells ([7]; cells subject to lentiviral transduction, FIGS. 3A-3E): substantially higher quantities
- quantity of CD34+CD90+ cells relative to vehicle-treated and untreated cells [7, 9]: substantial increase
- total quantity of cells relative to vehicle-treated cells [7, 9]: increase in the total quantity of cells
- human cells in the periphery of the mice showing loss of target protein (average) (NSG mice [8]; [10]): > 75%
- increase in engraftment compared to mice receiving vehicle-treated cells (NSG mice [8]; [10]): greater than 2 fold
- engraftment in NSG mice (NSG mice [8]): significant increase
- AHR antagonism in the dioxin response element luciferase reporter assay (AHR): complete AHR antagonism
- increase in potency compared to SR1 (AHR; dioxin response element luciferase reporter assay): 12 fold

Compound: CC(C)n1cnc2c(NCCc3ccc(O)cc3)nc(-c3csc4ccccc34)nc21 [SR1, reference compound]
- increase in CD34+ number [1]: 6 fold
- engraftment in NSG mice (NSG mice [8]): significant increase
